# Where “and” joins values, the source holds several entries; their conditions need not be identical. Equal entries are not always repeated. Where two headings read alike, the source gives them in different places.
# Legend:
# Sprague Dawley rats = details: rat, in vivo; for Liver Necrosis / Score (histopathology liver necrosis severity score): ip
# In short: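 Toxicity calls (necrosis present or absent at 72 h) and histopathology scores were correlated with tissue gene expression from Crl:CD Sprague Dawley rats. Animals, usually 3 treated with compound by i.p. route and 3 given vehicle, were killed at 6, 24 or 72 h and tissues frozen immediately in liquid nitrogen.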
# [1] = system: toxicologically relevant rat genes (rat CT array); details: rat, in vivo
smiles,measurement,setting,value
O=P1(N(CCCl)CCCl)NCCCO1 (centres unmarked) [cyclophosphamide],Liver Toxicity Necrosis Classification,Sprague Dawley rats,no
same,Liver Necrosis,Sprague Dawley rats; 25 mg/kg,no
same,Score (histopathology liver necrosis severity score),Sprague Dawley rats; 25 mg/kg,1
same,Liver Necrosis,Sprague Dawley rats; 100 mg/kg,no
same,Score (histopathology liver necrosis severity score),Sprague Dawley rats; 100 mg/kg,1
same,3-hydroxyisobutyrate dehydrogenase expression,[1],0.9805 and 0.7489 and 0.9559 and 1.069
same,14-3-3 zeta expression,[1],1.184 and 1.14 and 0.9397 and 1.393 and 1.097 and 1.241 and 0.8233 and 0.7916
same,60S ribosomal protein L6 expression,[1],0.9039 and 0.9014 and 0.8838 and 1.028 and 0.8728 and 0.8315
same,ATPase inhibitor (rat mitochondrial IF1 protein) expression,[1],0.7509 and 0.9233 and 0.8847 and 0.6961 and 0.9379 and 0.8829 and 0.8577 and 0.9897
same,Adenine nucleotide translocator 1 expression,[1],0.9086 and 0.7561 and 1.167
same,Aflatoxin B1 aldehyde reductase expression,[1],0.6743 and 0.8573 and 0.9459 and 0.6588 and 0.7015
same,Alpha-1 microglobulin/bikunin precursor (Ambp) expression,[1],1.017 and 0.5993 and 0.8086
same,Alpha-2-macroglobulin expression,[1],0.846 and 0.9185 and 0.7109 and 1.376 and 0.7513
same,"Alpha-2-macroglobulin, sequence 2 expression",[1],0.9485 and 1.095 and 1.193
same,Alpha-prothymosin expression,[1],0.6454 and 0.6204
same,Alpha-tubulin expression,[1],1.198 and 0.7656 and 0.8189
same,Annexin V expression,[1],1.206 and 1.05 and 1.01
same,Apolipoprotein All expression,[1],0.9781 and 0.8882 and 0.8841
same,Apolipoprotein C1 expression,[1],0.9407 and 0.9263 and 1.074
same,Apolipoprotein CIII expression,[1],0.9783 and 0.6934 and 0.9372
same,Aquaporin-3 (AQP3) expression,[1],0.9643 and 0.9481 and 0.9808
same,Arginosuccinate synthetase 1 expression,[1],1.222 and 0.8241 and 1.258
same,Bax (alpha) expression,[1],1.239 and 1.237 and 1.357 and 1.269 and 0.9338
same,"Beta-actin, sequence 2 expression",[1],1.01 and 0.7994 and 0.7978
same,"Beta-tubulin, class I expression",[1],0.6539 and 0.688
same,Betaine homocysteine methyltransferase (BHMT) expression,[1],0.479 and 0.46 and 0.7332
same,Biliverdin reductase expression,[1],0.8817 and 0.9203 and 1
same,C-reactive protein expression,[1],1.634 and 0.981 and 1.457
same,CDK108 expression,[1],0.8582 and 0.7188 and 0.8687
same,Calpactin I heavy chain expression,[1],1.229 and 1.24 and 1.238 and 1.077 and 1.066 and 1.019 and 0.9156
same,Calpain 2 expression,[1],0.949 and 0.9377 and 0.9321
same,Cathepsin B expression,[1],0.8937 and 0.8218 and 0.8443
same,Cathepsin S expression,[1],1.022 and 1.151
same,Cofilin expression,[1],1.007 and 0.8938 and 0.9356
same,Collagen type II expression,[1],0.9485 and 0.8839 and 0.6238
same,Contrapsin-like protease inhibitor (CPi-21) expression,[1],1.085 and 0.6397 and 0.8351
same,Cyclin D1 expression,[1],0.8933 and 1.39
same,Cystatin C expression,[1],0.9711 and 1.107 and 0.9417
same,Dynamin-1 (D100) expression,[1],0.9779 and 1.159 and 1.053 and 0.8876 and 0.9989 and 0.9805 and 0.8392 and 0.9019
same,Elongation factor-1 alpha expression,[1],1.136 and 0.9264
same,Epidermal growth factor expression,[1],1.068 and 1.046 (2×) and 0.855 and 1.03
same,F1-ATPase beta subunit expression,[1],0.9746 and 0.7787 and 0.8888
same,Fas antigen expression,[1],1.289 and 1.407 and 0.9112 and 1.614 and 1.141
same,Fatty acid synthase expression,[1],0.8145 and 0.6404 and 0.4288
same,Gadd45 expression,[1],0.951 and 0.9302 and 1.226 and 0.8099 and 0.9252
same,Gadd153 expression,[1],1.107 and 1.088 and 1.217 and 1.23 and 1.048
same,Glutathione S-transferase theta-1 expression,[1],1.063 and 0.5752 and 0.7421
same,Heme oxygenase expression,[1],0.9535 and 0.8807 and 1.153 and 0.8353 and 0.9394 and 1.116 and 1.353 and 1.508
same,High affinity IgE receptor gamma chain (FcERIgamma) expression,[1],0.8735 and 0.8896 and 0.9764
same,Hypoxanthine-guanine phosphoribosyltransferase expression,[1],0.9194 and 0.7728 and 0.8641
same,ID-1 expression,[1],1.442 and 1.187 and 1.516 and 0.9754 and 1.354
same,IgE binding protein expression,[1],0.8797
same,Integrin beta1 expression,[1],1.174 and 0.9675 and 1.666 and 0.9992
same,Interleukin-18 expression,[1],0.9442 and 1.131
same,JNK1 stress activated protein kinase expression,[1],1.083 and 1.357
same,L-gulono-gamma-lactone oxidase expression,[1],0.9031 and 1.152 and 0.724 and 0.7478 and 0.9085
same,Lecithin: cholesterol acyltransferase expression,[1],1.164 and 0.8942 and 0.9655
same,Matrin F/G expression,[1],1.192 and 0.8718 and 1.349 and 1.163
same,Melanoma-associated antigen ME491 expression,[1],0.8571 and 0.8832 and 0.9165
same,Monocyte chemotactic protein receptor (CCR2) expression,[1],0.9135 and 0.9294 and 1.707 and 0.9161 and 1.021
same,Multidrug resistant protein-1 expression,[1],1.07 and 0.9469 and 1.398
same,Multidrug resistant protein-2 expression,[1],1.024 and 1.129 and 1.355
same,"NADP-dependent isocitrate dehydrogenase, cytosolic expression",[1],0.8988 and 1.062
same,NIPK expression,[1],1.292 and 0.8721
same,Nucleoside diphosphate kinase beta isoform expression,[1],0.9788 and 0.8819 and 0.9694
same,Organic anion transporter 3 expression,[1],1.199 and 1.24 and 0.8444 and 0.9666
same,Organic cation transporter 3 expression,[1],0.9369 and 0.9031 and 0.9971 and 1.049 and 1.006 and 0.9297 and 0.8878
same,Ornithine decarboxylase expression,[1],1.176 and 1.138 and 1.239 and 1.627 and 1.232 and 1.15 and 0.9487 and 1.103
same,Osteoactivin expression,[1],1.044 and 1.068 and 1.102
same,PAR interacting protein expression,[1],0.9853 and 0.8819 and 1.001 and 0.9074 and 0.8501
same,Phase-1 RCT-15 expression,[1],1.548
same,Phase-1 RCT-24 expression,[1],0.8922
same,Phase-1 RCT-33 expression,[1],0.9894 and 0.9036 and 0.7825 and 0.5992
same,Phase-1 RCT-36 expression,[1],0.8405 and 0.8638 and 0.7841
same,Phase-1 RCT-38 expression,[1],0.6634
same,Phase-1 RCT-39 expression,[1],1.102 and 0.8162
same,Phase-1 RCT-40 expression,[1],0.9476 and 0.7827 and 0.6627 and 0.9191
same,Phase-1 RCT-43 expression,[1],1.413
same,Phase-1 RCT-48 expression,[1],0.7872
same,Phase-1 RCT-49 expression,[1],0.9994
same,Phase-1 RCT-50 expression,[1],1.001 and 0.9172
same,Phase-1 RCT-57 expression,[1],1
same,Phase-1 RCT-58 expression,[1],0.9564
same,Phase-1 RCT-61 expression,[1],0.956 and 0.9001
same,Phase-1 RCT-65 expression,[1],1.662
same,Phase-1 RCT-68 expression,[1],1.562
same,Phase-1 RCT-78 expression,[1],0.8268
same,Phase-1 RCT-81 expression,[1],0.9793
same,Phase-1 RCT-88 expression,[1],0.7545 and 0.7728 and 0.8998 and 0.9204
same,Phase-1 RCT-89 expression,[1],0.8326
same,Phase-1 RCT-92 expression,[1],0.7803 and 0.7782
same,Phase-1 RCT-117 expression,[1],0.9098
same,Phase-1 RCT-121 expression,[1],0.9382
same,Phase-1 RCT-123 expression,[1],0.8497
same,Phase-1 RCT-128 expression,[1],0.7223
same,Phase-1 RCT-137 expression,[1],0.7713
same,Phase-1 RCT-138 expression,[1],0.9171
same,Phase-1 RCT-144 expression,[1],0.8012 and 0.9797 and 0.8356
same,Phase-1 RCT-146 expression,[1],0.8995
same,Phase-1 RCT-149 expression,[1],1.199
same,Phase-1 RCT-152 expression,[1],0.9267 and 0.8689
same,Phase-1 RCT-154 expression,[1],0.9702
same,Phase-1 RCT-156 expression,[1],1.626
same,Phase-1 RCT-164 expression,[1],1.443 and 0.9271
same,Phase-1 RCT-179 expression,[1],0.9473 and 0.8452 and 0.9271
same,Phase-1 RCT-180 expression,[1],0.9312 and 0.9629
same,Phase-1 RCT-182 expression,[1],0.7286 and 0.6249 and 0.7487 and 1.104
same,Phase-1 RCT-189 expression,[1],1.097 and 0.7075 and 0.8923
same,Phase-1 RCT-192 expression,[1],1.102
same,Phase-1 RCT-207 expression,[1],0.9999 and 1.403 and 0.9634 and 0.8151
same,Phase-1 RCT-211 expression,[1],1.001
same,Phase-1 RCT-213 expression,[1],0.9194 and 0.9272
same,Phase-1 RCT-227 expression,[1],0.8544 and 0.7558
same,Phase-1 RCT-230 expression,[1],0.8887
same,Phase-1 RCT-241 expression,[1],0.9823
same,Phase-1 RCT-258 expression,[1],1.294 and 1.004 and 1.001
same,Phase-1 RCT-260 expression,[1],0.9269
same,Phase-1 RCT-264 expression,[1],0.7874
same,Phase-1 RCT-270 expression,[1],0.9664 and 0.6832
same,Phase-1 RCT-271 expression,[1],0.642 and 0.7477
same,Phase-1 RCT-288 expression,[1],0.8319 and 0.9535
same,Phase-1 RCT-290 expression,[1],0.6874 and 0.7078 and 0.8375
same,Phase-1 RCT-291 expression,[1],1 and 0.8077 and 0.9279
same,Phase-1 RCT-292 expression,[1],0.8838
same,Poly(ADP-ribose) polymerase expression,[1],0.9399 and 0.8855 and 1.07
same,Presenilin-1 expression,[1],0.6993 and 0.8827 and 0.7827
same,Proliferating cell nuclear antigen gene expression,[1],0.8773 and 0.9599 and 1
same,"Protein tyrosine phosphatase, receptor type, D expression",[1],1.351 and 1.117
same,"Pyruvate kinase, muscle expression",[1],0.9707 and 1.019 and 0.8026
same,Retinol dehydrogenase type III expression,[1],1.384 and 0.6954 and 0.7914
same,Ribosomal protein S8 expression,[1],0.9951 and 0.8646 and 0.9055
same,Ribosomal protein S17 expression,[1],0.973 and 0.9247 and 0.8883 and 1.41 and 1.034 and 0.9413
same,Stathmin expression,[1],1.012 and 1.005 and 0.8767
same,Thioredoxin-1 (Trx1) expression,[1],0.9618 and 0.9127 and 0.8599
same,Thymidylate synthase expression,[1],1.077 and 1.121 and 1.142
same,Thymosin beta-10 expression,[1],1.026 and 0.8658 and 0.6552
same,Tissue plasminogen activator expression,[1],0.8917 and 0.8347 and 0.9056
same,Transitional endoplasmic reticulum ATPase expression,[1],0.9095 and 0.8634 and 0.9474
same,Transthyretin expression,[1],0.9173 and 0.9384 and 0.8358 and 0.667 and 1.075
same,Ubiquitin conjugating enzyme (RAD 6 homologue) expression,[1],0.9811 and 1.057 and 0.8291 and 1.341 and 1.041 and 1.145 and 0.8334 and 1.02
same,Uncoupling protein 2 expression,[1],0.8638 and 0.7241
same,Zinc finger protein expression,[1],0.991 and 1.034 and 1.076 and 1.004 and 1.101 and 0.9835 and 1.081 and 1.11
same,c-myc expression,[1],0.9533 (2×) and 0.912 and 1.636 and 0.8965
same,p55CDC expression,[1],0.9412 and 1.059 and 0.9495
same,{Phase-1 RCT 98} expression,[1],0.8899 and 0.9469
same,{Ribosomal protein 16} expression,[1],1.097 and 0.9357 and 0.8372

# — US20040076974A1, “Liver necrosis predictive genes” (priority 2002, published 2004)
